# Measured values taken from patent US12594265B2, “Methods and compositions for inhibition of STAT3” (Ohio State Innovation Foundation, priority 2017, dated 2026).
# What was measured:
# [1] = system: pSTAT3 in CD4 T cells from MS patients; assay: Phosphorylation of STAT3 in CD4 T cells from MS patients (phospho flow cytometry); type: cell-based, human; settings: 0.25 μM; αhCD3 plus rhIL-6 for 30 minutes; 6 patients
# Description: FIGS. 13A-13C show representative data for the effect of LLL12b treatment on the phosphorylation status of STAT3 in CD4 T-cells obtained from MS patients. Briefly, PBMCs from treatment-naïve MS patients were activated with αhCD3 plus rhIL-6 for 30 minutes, in the presence of 0.25 μM of LLL12b or vehicle control (DMSO). pSTAT3 was determined by phospho flow cytometry. Cells were gated on CD4+ cells.
# LLL12b inhibits the phosphorylation of STAT3 in CD4 T cells from MS patients. To determine whether LLL12b suppresses the phosphorylation of STAT3 in human CD4 T cells, PBMCs from 6 treatment-naïve MS patients were activated with αhCD3 plus rhIL-6 for 30 minutes, in the presence of 0.25 μM of LLL12b or vehicle control (DMSO). pSTAT3 was determined by phospho flow cytometry.
# [2] = system: pSTAT3 in myelin-specific CD4 T cells; assay: pSTAT3 levels in myelin-specific CD4 T cells (intracellular flow cytometry); type: cell-based, mice; settings: 0.250 μM; MBP Ac1-11 and IL-6 activation
# Description: Intracellular staining and flow cytometric analysis. Flow cytometric analysis was performed to evaluate the expression of surface markers and T-bet in CD4 T cells, as previously described (Yang, Weiner et al. 2009). Briefly, splenocytes were activated with antigen or αCD3/CD28 for 48 to 72 hours. Cells were then collected, washed, and resuspended in staining buffer (1% BSA in PBS). The cells were incubated with mAbs to the cell-surface markers for 30 min at 4° C. After washing twice with staining buffer, cells were fixed and permeabilized using Cytofix/Cytoperm solution for 20 min at 4° C. Cells were stained for intracellular cytokines and T-bet for 30 min at 4° C. 80,000-100,000 live cell events were acquired on a FACSCanto (BD) and analyzed using FlowJo software (Tree Star, Inc.). PerCP-anti-CD4, and Pacific Blue-anti-CD44 were purchased from BD. PE-anti-PD-1, PE-Cy7-anti-IL-7Rα and Pacific Blue-anti-T-bet were purchased from Biolegend Biotechnology, Inc.
# LLL12b suppresses pSTAT3 expression and IL-17 production in myelin-specific CD4 T cells in a dose-dependent manner. LLL21b was further tested to assess suppression of pSTAT3 expression in myelin-specific CD4 T cells. FIGS. 7A-7B show representative data for the effect of a representative disclosed compound, LLL12b, on IL-17 production, pSTAT3 levels, and cell viability under various conditions. […]
# [3] = system: IL-23-induced IL-17 production in myelin specific CD4 T cells; assay: IL-23-induced IL-17 production in myelin-specific CD4 T cells (splenocytes of PLP-immunized SJL mice); type: cell-based; settings: PLP 139-151 with IL-23 for 3 days, different concentrations
# Text: Briefly, SJL mice were immunized with PLP 139-151. Splenocytes were isolated on day 20 after immunization and activated with PLP 139-151 with our without IL-23 for 3 days, in the presence of different concentrations of LLL12b or DMSO (vehicle control). […] Cells were gated on CD44+CD4+ T cells. Flow data are representative of three independent experiments. […] All error bars denote s.e.m. * * denotes p<0.01; *** denotes p<0.001; **** denotes p<0.0001.
# [4] = system: Teff cells from MS patients; assay: CFSE-based Treg-mediated suppression assay on Teff cells from MS patients; type: cell-based, human; settings: 0.25 μM for 1-2 hrs; 3 treatment-naïve MS patients
# Description: FIGS. 15A-15C show representative data for LLL12b enhancement of Treg-mediated suppression on Teff cells obtained from MS patients. PBMCs were obtained from three treatment-naïve MS patients and were activated with αhCD3/CD28 plus rhTGFβ, rhIL-2 and RA for 3 days to generate Tregs. Meanwhile, PBMCs from the same three MS patients were labeled with CFSE and cultured with 0.25 μM of LLL12b or DMSO for 1-2 hours. The LLL12b or DMSO treated CFSE-CD4 T cells were then mixed with Tregs generated from the same patient at different ratios and activated with αhCD3 for 5 days. Proliferation of Teff cells was determined by flow cytometric analysis of CFSE on CD4 T cells. Cells were gated on CD4+ cells.
# LLL12b enhances Treg mediated suppression on Teff cells from MS patients. Since Teff cells from MS patients are resistant to Treg mediated suppression and IL-6/STAT3 signaling promotes the resistance of Teff in MS patient, we determined whether LLL12b may enhance the Treg-mediated suppression on Teff from MS patients using CFSE-based suppression assay. PBMCs from three treatment-naïve MS patients were labeled with CFSE and cultured with 0.25 μM of LLL12b or DMSO for 1-2 hrs. Then the CFSE-CD4 T cells were mixed with iTregs differentiated from the same patient at different ratio, and activated with αhCD3 for 5 days. […]
smiles,measurement,setting,value
CN(C)C(=O)Oc1cccc2c1C(=O)c1cccc(S(N)(=O)=O)c1C2=O [LLL12b],pSTAT3 expression in CD4 T cells from MS patients,[1],significantly suppresses pSTAT3 expression
same,pSTAT3 expression,[2],notably suppresses pSTAT3 expression
same,IL-23-induced IL-17 production,[3],inhibition of IL-23-induced IL-17 production
same,Treg mediated suppression on Teff cells (% suppression),[4],significantly increased
